Laboratory results published in US4859664A, “Derivatives of 2,3,4,5,6,7-hexahydro-2,7-methano-1,5-benzoxazonines and -1,4-benzoxazonines, processes for their production and their use as pharmaceuticals” (priority 1986, dated 1989).

Key:
[1] = format: in vivo, male NMRI mice; conditions: ED50 p.o. / ED50 s.c.
Protocol: (§1) […]. They were given a standard feed and water ad libitum up to the commencement of the experiments.
(§2) The test compounds were administered in a volume of 10 ml./kg./body weight per mouse. As carrier, there was used physiological sodium chloride solution or a suspension of 0.5% tragacanth in physiological sodium chloride solution.
(§3) The experimental results are given as average values with a mean error of the average value (x±S.E.M.). The ED50 values were calculated according to Litchfield and Wilcoxon (J. Pharmacol. Exp. Ther., 96, 99/1949). The compounds were thereby tested in 4 dosages (p≤0.5).
For the significance calculation, there was used Student's t test (see Angewandte Statistik, pub. Stringer Verlag, Berlin, Heidelberg, 242/1983), as well as the range sum test of Mann and Withney (Ann. Math. stat., 50, 1818/1947).
1.1. In the acetic acid writhing test (see R. Koster et al., Fed. proc., 18, 412/1954), the typical stretching movements referred to as "writhing", were produced by the intraperitoneal administration of a 0.6% acetic acid solution. 30 minutes previously, the substance to be tested was administered subcutaneously (s.c.) or orally ([…].) to the animals. 3 minutes after administration of the acetic acid solution, the total number of stretching movements in a period of time of 10 minutes was ascertained. From the decrease of the stretching reactions due to the action of the test compound in comparison with non-pretreated control groups, there was determined the percentage inhibition action.

[2] = hot plate test; format: in vivo, male NMRI mice; conditions: Mus musculus, sc; plate 54° C.; 30 and 60 min; limits in brackets; read-out: ED50 (50% increase of the reaction time)
Protocol: (§4) For the pharmacological investigations described in the following, there were used male NMRI mice with a weight of from 15 to 30 g. The animals were kept under usual laboratory conditions, randomised and subjected to a light-dark change with a 12 hour rhythm. They were given a standard feed and water ad libitum up to the commencement of the experiments.
as §2
The experimental results are given as average values with a mean error of the average value (x±S.E.M.). The ED50 values were calculated according to Litchfield and Wilcoxon (J. Pharmacol. Exp. Ther., 96, 99/1949). The compounds were thereby tested in 4 dosages ([…]). […]
30 and 60 minutes after the subcutaneous administration of the test compounds, the experimental animals were placed on a metal plate, the surface temperature of which was kept constant at 54° C. The time was measured up to the commencement of a pain reaction (standing on the rear paws with licking and rubbing togeth4er of the front paws or jumping). In a preceding test, the average reaction time of the animals was determined from three measurements at intervals of, in each case, 15 minutes. […]

[3] = influencing of hexobarbital narcosis; format: in vivo, male NMRI mice; conditions: for period of narcosis ± SEM: hexobarbital sodium 100 mg./kg. i.p.
Protocol: as §1, §2, §3
4. Influencing of hexobarbital narcosis.
The test compounds were administered subcutaneously to 5 animals per dosage group. After 30 minutes, 100 mg./kg. hexobarbital sodium was administered intraperitoneally. 2 to 3 minutes after this injection, the animals allowed themselves to be laid on their backs. For each animal, there was measured the time in minutes from the commencement of the back position up to the time when the animals themselves twice successively again assumed the abdominal position.

[4] = antidepressive action: reserpine reversal test (tetrabenazine); format: in vivo, male NMRI mice; conditions: 50 and 25 mg./kg. s.c.
Protocol: as §4, §2
7. Antidepressive action.
There was used the reserpine reversal test (see G. Zettler, K. Mahler and F. Daniel, Naunyn-Schmiedeberg's Arch. Exp. Path. Pharmacol., 238, 468/1960; ibid. 236, 422/1958). 30 minutes after the subcutaneous administration of the test compounds, the animals (6 animals per dosage group) received subcutaneously 40 mg./kg. tetrabenazine dissolved in 0.5% aqueous ascorbic acid solution. 30 and 60 minutes after the tetrabenazine administration, the animals were placed on a vertical rod (length 90 cm., diameter 1.5 cm., coiled round with 0.2 cm. thick thread) and observed for 30 seconds. Those animals which remained motionless during this time were evaluated as being cataleptic. Previously, the degree of ptosis was assessed.

## CC1NCCC2(C)CC1c1ccccc1O2 (stereo not shown) [Example 9, 2,3,4,5,6,7-hexahydro-2,6-dimethyl-2,7-methano-1,5-benzoxazonine]
[1]
  quotient p.o./s.c. (of ED50): 1.45
[2]
  ED50: 12 mg/kg
[3]; 25 mg/kg sc
  change with regard to hexabarbital sodium: -29.4 min
  period of narcosis ± SEM: 63 ± 21.0 min
[3]; 50 mg./kg.
  effect on period of narcosis: statistically verified shortening of the period of narcosis
[3]; 50 mg/kg sc
  change with regard to hexabarbital sodium: -53.4 min
  period of narcosis ± SEM: 39 ± 12.4 min
[4]
  influence on tetrabenazine-induced catalepsy: did not influence
  influence on tetrabenazine-induced ptosis: did not influence

## CC12CCNCC(C1)c1ccccc1O2 (stereo not shown) [Example 6, 2,3,4,5,6,7-hexahydro-2-methyl-2,7-methano-1,5-benzoxazonine]
[1]
  quotient p.o./s.c. (of ED50): 1.65
[2]
  ED50: 13.8 mg/kg
[4]
  influence on tetrabenazine-induced catalepsy: did not influence
  influence on tetrabenazine-induced ptosis: did not influence
